Each compound was assayed against Kv7.2/7.3 (Homo sapiens, UniProt O43525+O43526) (assay: Kv7.2/7.3 Activation Assay, QPatch single concentration screen). Conditions: Kv7.2/Kv7.3 co-expressing HEK cells, compound concentration 3 μM, steady-state current at end of 2 s pulse to −30 mV.
Assay type: cell-based
Set-up: host or cells: HEK cells, tetracycline-inducible expression
Procedure: Kv7.2/7.3 Activation Assay
The ability of compounds to potentiate K-currents in Kv7.2/7.3 containing HEK cells was assessed using planar patch-clamp on the QPatch automated screening platform.
The hKv7.2/7.3 cell line was obtained from Chantest (Cleveland, Ohio 44128) cat. #CT6147. These HEK cells will express the Kv7.2/7.3 ion channels when induced.
Cells were maintained in a media containing DMEM/F12; 50/50 (GIBCO cat. #11330), 10% Fetal Bovine Serum (FBS) (GIBCO cat. #26140), 100 units/mL Penicillin-Streptomycin (GIBCO cat. #15140), 0.005 mg/mL Blasticidin (INVIVOGEN cat. #ant-b1-1), 0.5 mg/mL Geneticin (GIBCO cat. #10131), 0.1 mg/mL Zeocin (GIBCO cat. #R25001). Cells used in the electrophysiology assay were maintained in a media without Blasticidin, Geneticin and Zeocin for 2 days and channel expression was induced by adding tetracycline (BIOLINE cat. #BIO-87030) at a final concentration of 1 mg/mL. Cells were grown in T-175 flask to ˜75% confluency. Currents were recorded 24 hours after channel induction.
Test compounds were prepared by performing serial dilutions on a Biomek NX^P (BECKMAN COULTER). Final dilutions were made in external recording solution with a final DMSO concentration of 0.1% DMSO. For single concentration screens each plate had 10 μM retigabine as a positive control and 0.1% DMSO as a negative control.
On the day of the experiment cells were washed with Hank's Balanced Salt Solution (HBBS) (GIBCO cat. #14175) and harvested with Tryple (GIBCO cat. #12604). Cells were then centrifuged at 2000 rpm for 5 minutes and resuspended in CHO-S-SFM (GIBCO cat. #12052) at ˜3×10^6 cells/mL. Cells were stirred for 30 minutes before experiments were started. External recording solution contained (in mM): NaCl (145), KCl (4), CaCl2 (2), MgCl2 (1), HEPES (10) and Glucose (10); pH was adjusted to 7.4 with NaOH and the osmolarity was adjusted to 300-305 mOsM with sucrose if necessary. Internal solution contained (in mM): KCl (125), KF (10), EGTA (5), Na2ATP (5), MgCl2 (3.2), HEPES (5); pH was adjusted to 7.2 with KOH and the osmolarity was adjusted to 298-302 mOsM with sucrose.
Potassium channel activity was measured on the QPatch HTX (Sophion Bioscience) using QPlates with 48-wells/plate. Each cell was taken as an independent experiment and only one compound was tested per well. Potassium channel activity was elicited by holding at −80 mV and stepping to −30 mV for 2 s followed by a 100 ms pulse to −120 mV.
Single Concentration Screen:
Baseline conditions were obtained by recording 5 sweeps in the external solution only, this was repeated for three applications of the external solution. The effect of test compounds on elicited current was then assessed by recording 5 sweeps in the presence of a 3 μM compound solution. The steady-state current at the end of the 2 s pulse to −30 mV was measured to determine the fold increase from baseline.

| Kv7.2/7.3 Activity: increase over baseline in current | SMILES |
| --- | --- |
| + (1.2-2.9 (+)) | CC1(n2c(NC(=O)CC(C)(C)C(F)(F)F)nc3cc(F)cc(C#N)c32)CCC1 [Example 340, N-(7-cyano-5-fluoro-1-(1-methylcyclobutyl)-1H-benzo[d]imidazol-2-yl)-4,4,4-trifluoro-3,3-dimethylbutanamide] |
| + (1.2-2.9 (+)) | CC(C)(CC(=O)Nc1nc2ccc(C#N)c(F)c2n1C1CCC1)CC(F)(F)F [Example 345, N-(6-cyano-1-cyclobutyl-7-fluoro-1H-benzo[d]imidazol-2-yl)-5,5,5-trifluoro-3,3-dimethylpentanamide] |
| ++ (3-3.9 (++)) | CC(C)(C)CC(=O)Nc1nc2ccc(OC(F)F)cc2n1C1(C)CCC1 [Example 346, N-(6-(difluoromethoxy)-1-(1-methylcyclobutyl)-1H-benzo[d]imidazol-2-yl)-3,3-dimethylbutanamide] |
| ++ (3-3.9 (++)) | CC(C)(C)n1c(NC(=O)CC(C)(C)C(F)(F)F)nc2c(F)cc(C#N)c(F)c21 [Example 349, N-(1-(tert-butyl)-6-cyano-4,7-difluoro-1H-benzo[d]imidazol-2-yl)-4,4,4-trifluoro-3,3-dimethylbutanamide] |
| + (1.2-2.9 (+)) | CC(C)(O)CC(=O)Nc1nc2ccc(OC(F)F)c(F)c2n1C1(C)CCC1 [Example 351, N-(6-(difluoromethoxy)-7-fluoro-1-(1-methylcyclobutyl)-1H-benzo[d]imidazol-2-yl)-3-hydroxy-3-methylbutanamide] |
| ++ (3-3.9 (++)) | CC(C)(CC(=O)Nc1nc2c(F)cc(C3(O)CCC3)cc2n1C1CCC1)C(F)(F)F [Example 352, N-(1-cyclobutyl-4-fluoro-6-(1-hydroxycyclobutyl)-1H-benzo[d]imidazol-2-yl)-4,4,4-trifluoro-3,3-dimethylbutanamide] |
| + (1.2-2.9 (+)) | CC(C)(O)c1ccc2nc(NC(=O)CC3CC(F)(F)C3(F)F)n(C3CCC3)c2c1 (centres unmarked) [Example 353, N-(1-cyclobutyl-6-(2-hydroxypropan-2-yl)-1H-benzo[d]imidazol-2-yl)-2-(2,2,3,3-tetrafluorocyclobutyl)acetamide] |
| ++ (3-3.9 (++)) | CC(C)(CC(=O)Nc1nc2ccc(C#N)cc2n1C(C)(C)C)C1CC1 [Example 354, N-(1-(tert-butyl)-6-cyano-1H-benzo[d]imidazol-2-yl)-3-cyclopropyl-3-methylbutanamide] |
| + (1.2-2.9 (+)) | CC(C)(C)CC(=O)Nc1nc2cc(F)c(C#N)c(F)c2n1C1CCC1 [Example 356, N-(6-cyano-1-cyclobutyl-5,7-difluoro-1H-benzo[d]imidazol-2-yl)-3,3-dimethylbutanamide] |
| ++ (3-3.9 (++)) | CC(C)(CC(=O)Nc1nc2c(F)cc(O)cc2n1C1CCC1)C(F)(F)F [Example 359, N-(1-cyclobutyl-4-fluoro-6-hydroxy-1H-benzo[d]imidazol-2-yl)-4,4,4-trifluoro-3,3-dimethylbutanamide] |
| ++ (3-3.9 (++)) | CC1(n2c(NC(=O)CC(C)(C)C(F)(F)F)nc3ccc(C#N)cc32)CCC1 [Example 361, N-(6-cyano-1-(1-methylcyclobutyl)-1H-benzo[d]imidazol-2-yl)-4,4,4-trifluoro-3,3-dimethylbutanamide] |
| ++ (3-3.9 (++)) | CC(C)(C)CC(=O)Nc1nc2cc(F)c(C(C)(C)O)c(F)c2n1C1CCC1 [Example 362, N-(1-cyclobutyl-5,7-difluoro-6-(2-hydroxypropan-2-yl)-1H-benzo[d]imidazol-2-yl)-3,3-dimethylbutanamide] |
| + (1.2-2.9 (+)) | CC(C)(CC(=O)Nc1nc2cc(F)c(OC(F)F)cc2n1C1CCC1)C1CC1 [Example 363, N-(1-cyclobutyl-6-(difluoromethoxy)-5-fluoro-1H-benzo[d]imidazol-2-yl)-3-cyclopropyl-3-methylbutanamide] |
| ++ (3-3.9 (++)) | CC(C)(CC(=O)Nc1nc2c(F)cc(C#N)cc2n1C(C)(C)C)C(F)F [Example 364, N-(1-(tert-butyl)-6-cyano-4-fluoro-1H-benzo[d]imidazol-2-yl)-4,4-difluoro-3,3-dimethylbutanamide] |
| + (1.2-2.9 (+)) | C[C@H](C(=O)Nc1nc2ccc(C(C)(C)O)cc2n1C1CC(F)(F)C1)C(C)(C)C [Example 365, (S)-N-(1-(3,3-difluorocyclobutyl)-6-(2-hydroxypropan-2-yl)-1H-benzo[d]imidazol-2-yl)-2,3,3-trimethylbutanamide] |
| + (1.2-2.9 (+)) | CC1(n2c(NC(=O)CC(C)(C)C(F)(F)F)nc3ccc(OC(F)F)cc32)CCC1 [Example 366, N-(6-(difluoromethoxy)-1-(1-methylcyclobutyl)-1H-benzo[d]imidazol-2-yl)-4,4,4-trifluoro-3,3-dimethylbutanamide] |
| ++ (3-3.9 (++)) | CC(C)(CC(=O)Nc1nc2cc(F)c(OC(F)F)cc2n1C1(C)CCC1)C1CC1 [Example 367, 3-cyclopropyl-N-(6-(difluoromethoxy)-5-fluoro-1-(1-methylcyclobutyl)-1H-benzo[d]imidazol-2-yl)-3-methylbutanamide] |
| + (1.2-2.9 (+)) | CC(C)(CC(=O)Nc1nc2cc(F)c(OC(F)F)cc2n1C(C)(C)C)C1CC1 [Example 368, N-(1-(tert-butyl)-6-(difluoromethoxy)-5-fluoro-1H-benzo[d]imidazol-2-yl)-3-cyclopropyl-3-methylbutanamide] |

| SMILES | Kv7.2/7.3 Activity: increase over baseline in current |
| --- | --- |
| CC(C)(CC(=O)Nc1nc2c(F)cc(OC(F)F)cc2n1C1(C)CCC1)C1CC1 [Example 338, 3-cyclopropyl-N-(6-(difluoromethoxy)-4-fluoro-1-(1-methylcyclobutyl)-1H-benzo[d]imidazol-2-yl)-3-methylbutanamide] | +++ (>4 (+++) fold increase over baseline) |
| [2H]C([2H])([2H])C(CC(=O)Nc1nc2c(F)cc(C(C)(C)O)cc2n1C1CCC1)(C([2H])([2H])[2H])C([2H])([2H])[2H] [Example 342, N-(1-cyclobutyl-4-fluoro-6-(2-hydroxypropan-2-yl)-1H-benzo[d]imidazol-2-yl)-3,3-bis(methyl-d3)butanamide] | +++ (>4 (+++) fold increase over baseline) |
| CC(C)(C)CC(=O)Nc1nc2c(F)cc(Br)cc2n1C1CCC1 [Example 343, N-(6-bromo-1-cyclobutyl-4-fluoro-1H-benzo[d]imidazol-2-yl)-3,3-dimethylbutanamide] | +++ (>4 (+++) fold increase over baseline) |
| COc1cc(F)c2nc(NC(=O)CC(C)(C)C)n(C3(C)CCC3)c2c1 [Example 355, N-(4-fluoro-6-methoxy-1-(1-methylcyclobutyl)-1H-benzo[d]imidazol-2-yl)-3,3-dimethylbutanamide] | +++ (>4 (+++) fold increase over baseline) |
| CC(C)(C)CC(=O)Nc1nc2cc(F)cc(F)c2n1C1CCC1 [Example 357, N-(1-cyclobutyl-5,7-difluoro-1H-benzo[d]imidazol-2-yl)-3,3-dimethylbutanamide] | +++ (>4 (+++) fold increase over baseline) |

— US10851067B2, “Kv7 channel activators compositions and methods of use” (Knopp Biosciences LLC, priority 2018, dated 2020)
